Measurements published in patent US11344601B2, “Tumor microenvironment-related target TAK1 and application thereof in inhibition of tumor” (Shanghai Institutes for Biological Sciences, Chinese …, priority 2017, dated 2022).

How the values were obtained:
[1] = system: prostate-derived stromal cell line PSC27 and epithelial cancer cell line PC3 xenograft tumors; assay: Preclinical chemotherapy trial, subcutaneous PC3/PSC27 tissue-recombinant tumors, terminal tumor volume; type: in vivo, ICR-SCID mice
Description: All experimental mouse experiments were carried out in strict accordance with the relevant regulations of the Institutional animal care and use committee (IACUC) of the shanghai Institute of Life Sciences of the Chinese Academy of Sciences. ICR-SCID mice at an age of about 6 weeks (about 25 g in body weight) were used in this patent-related animal experiment. Stromal cells PSC27 and epithelial cells were mixed at a ratio of 1:4, with each implant containing 1.25×10^6 cells for tissue recombination. The transplant tumor was implanted into mice subcutaneously, and the animals were euthanized at the end of Week 8 after transplantation. The tumor volume was calculated according to the following formula: V=(π/6)×((l+w)/2)^3 (V, volume; l, length; w, width). Similarly, lung and breast cancer xenograft tumors were formed by tissue recombination with A549 (non-small cell lung cancer cell line) and W138 (lung fibroblast line), MDA-MB-231 (triple negative breast cancer cell line) and HBF1203 (breast fibroblast line), respectively.
(§1) In the preclinical chemotherapy trial, mice subcutaneously transplanted with tumors were fed standard experimental diet. After 2 weeks, the chemotherapeutics mitoxantrone (dose of 0.2 mg/kg) and/or SASP inhibitors (500 μl, dose of 10 mg/kg, RAD001, SB203580 and 5Z-7 were purchased from Tocris; LYTAK, purchased from Lilly Co ((Indianapolis, Ind.), 5 mg/kg) were administrated intraperitoneally. The timepoint was the first day of Week 3, 5, 7, and the whole course of treatment was composed of three cycles of administration, each cycle lasted for 2 weeks. After the course of treatment, mouse […] was collected for tumor measurement and histological analysis. Each mouse received cumulatively 0.6 mg mitoxantrone/kg body weight and 30 mg SASP inhibitor/kg body (15 mg/kg body weight for LYTAK1). Mice xenografted with lung cancer and breast cancer tumor received bleomycin (totally 0.3 mg/kg) and doxorubicin (totally 0.2 mg/kg), respectively. The timepoints and frequency were same as the administration of mitoxantrone. The chemotherapeutic trial was performed until the end of Week 8, and the mice were dissected immediately after death. The transplant tumors were collected and used for analysis in a pathological system.
In order to simulate clinical conditions as much as possible, the present inventor inoculated the subcutaneous site of immunodeficient mice with an admixture of prostate-derived stromal cell line PSC27 and epithelial cancer cell line PC3. The mice subsequently underwent a regimen of 8-week preclinical chemotherapy, which included three single- or double-drug treatments based on a series of pre-experimental data (FIGS. 64 and 65). In the absence of stromal cells, PC3 cells were still able to form tumors under screening pressure caused by chemotherapeutics, though their volumes were smaller than that generated in the case of concurrent inoculation of stromal cells and cancer cells. Such difference also objectively confirmed the tumor-promoting effect of the microenvironment (FIG. 66).

[2] = system: PC3/PSC27 xenograft tumors; assay: Time-extended preclinical treatment, survival of PC3/PSC27 tumor-bearing mice; type: in vivo
Description: as §1, with “Mice xenografted with lung cancer and breast cancer tumor received bleomycin (totally 0.3 mg/kg) and doxorubicin (totally 0.2 mg/kg), respectively. The timepoints and frequency were same as the administration of mitoxantrone. The chemotherapeutic trial was performed until the end of Week 8, and the mice were dissected immediately after death. The transplant tumors were collected and used for analysis in a pathological system.” left out
Although there was no ectopic metastasis of cancer cells, the current inventor questions whether the microenvironment causes other pathological consequences other than tumor growth and drug resistance. To this end, the present inventor evaluated the survival of multiple groups of animals under a batch of time-extended preclinical treatment conditions to determine the objective results of tumor progression. All animals were monitored for tumor volume and recognized as severe disease when the tumor volume reached a certain upper limit (size 2000 mm^3).

NF-κB complex = assay: NF-κB activation in bleomycin-treated stromal cells (nuclear translocation, luciferase reporter); type: cell-based, human
Description: FIG. 22. The stromal cells pre-transduced with the NF-κB transcriptional luciferase reporter vector were treated with bleomycin and/or RAD001. The cells were collected on Day 7 and detected for the fluorescence signal intensity of the reporter vector.
FIG. 32. Detection of NF-kB transcriptional activity based on the reporter vector. Stromal cells were treated with bleomycin along with the PI3K small molecule inhibitor LY294002 (1 μM), Akt inhibitor MK-2206 (100 nM), mTOR inhibitor RAD001 (50 nM), p38 inhibitor SB203580 (10 μM) and TAK1 inhibitor 5Z-7 (500 nM), respectively, and cell lysates were used for determining luciferase activity.
The […] vector pBABE-puro-IκBα-mut (Super repressor) containing two phosphorylated mutant sites of IKK at S32A and S34A on the IκBα protein encoding sequence were used for transfection of lentivirus-packing cell line phoenix. Lentiviruses were subsequently used to infect PSC27 stromal cell line, whereas 1 μg/ml puromycin was used to screen positive clones. As another method, 5 μm of the small molecule inhibitor Bay11-7082 (purchased from Selleck) was used for NF-κB activity control. Stromal cells were subsequently exposed to several different forms of cytotoxicity, with the resulting phenotype recorded in time, and the relevant gene expression analyzed. The resulted conditioned culture medium produced from cells processed in this way was collected for various detection of epithelial cells.
Even so, is TAK1 activated indirectly by upstream DDR signaling associated with activation of a core transcription factor, NF-κB complex involved in the broad-spectrum expression of the SASP? The NF-κB complex was previously reported to be mediated by mono-ubiquitination of IκB kinase subunit γ (IKKγ) in cytoplasm. After isolating nucleus from cytoplasmic proteins using a kit, the inventor finds that TAK1 phosphorylation is associated with nuclear translocation of p50 and p65, the two main subunits of NF-κB complex (FIG. 4).

IL-8 = IL-8 protein expression of damaged stromal cells (Western blot, ELISA); type: cell-based, human
Description: FIG. 15. The stromal cells were collected on Day 7 after bleomycin and/or 5Z-7 treatment. The lysates were analyzed by Western blot for their phosphorylation levels of ATM and TAK1, and activation of TAK1 downstream substrate JN K and p38. IL-8, a chemokine was used as a marker secreted factor of SASP, whose expression level was simultaneously analyzed. FIG. 33. The extracellular fluid released by each group of cells were tested by ELISA to determine the protein expression level of the secreted factor IL-8.

PSC27 cells = assay: DNA damage response foci, colony formation, cell cycle arrest and SA-β-Gal in PSC27 cells; type: cell-based, human
Description: Experimental Treatment In Vitro • 100 nM docetaxel (DTX), 100 nM paclitaxel (PTX), 200 nM vincristine (VCR), 50 μg/ml bleomycin (BLEO), 1 μM mitoxantrone (MIT), or 10 Gy ^137CS ionizating radiation (γ-radiation at 743 rad/min, RAD) was added to the culture medium when PSC27 cells grown to 80% (PSC27-Pre) to produce cell damage. After drug treatment for 6 hours, the cells were simply washed by PBS for 3 times and kept in the culture medium for 7 to 10 days, followed by subsequent experiments. […] Immunofluorescence and Histochemical Analysis • Mouse monoclonal antibody anti-phospho-Histone H2A.X (Ser139) (clone JBW301, Millipore) or mouse monoclonal antibody anti-Phosphor-53BP1 (Cat #sc-135748, Santa Cruz), and secondary antibody Alexa Fluor® 488 (or 594)-conjugated F(ab′)2 were added sequentially to slides on which cells were fixed. Nuclei were counterstained with 2 μg/ml of 4′,6-diamidino-2-phenylindole (DAPI). The most representative image was selected from the 3 observation fields for data analysis and result presentation. FV1000 laser scanning confocal microscopy (Olympus) was used to obtain cellular confocal fluorescence images to determine the extent of DNA damage. • Antibody anti-TAK1 used for histological IHC staining in clinical prostate, non-small cell lung cancer patients and breast cancer patients, was purchased from Proteintech, idib.

COc1cc(O)c2c(c1)/C=C/C[C@H](O)[C@H](O)C(=O)/C=C\C[C@H](C)OC2=O [5Z-7, 5z-7-oxozeaenol]
effect on tumor growth ([1]; TAK1 inhibitor alone): does not appear to alter tumor growth trends | further decrease in terminal tumor volume ([1]; inhibitor combined with mitoxantrone (MIT) vs mitoxantrone alone (group 8 vs group 6), end of Week 8): 60% | survival of mice ([2]; 5Z-7 alone): only slightly prolonged | prolongation of disease-free survival ([2]; MIT/5Z-7 combination vs mitoxantrone alone, severe disease at tumor size 2000 mm^3): about 50% | NF-κB transcriptional activity (reporter vector) (NF-κB complex; bleomycin plus inhibitor, luciferase reporter): significantly reduced | phosphorylation of TAK1 and nuclear translocation of p50/p65 (NF-κB complex; bleomycin-treated stromal cells, cytosolic and nuclear proteins): significantly inhibited | inhibitory effect on NF-κB activation and IL-8 compared with the other inhibitors (NF-κB complex; vs LY294002, MK-2206, SB203580): stronger inhibitory effect | chemokine IL-8 protein levels induced by DNA damage (IL-8; ELISA of extracellular fluid, bleomycin plus inhibitor): significantly reduced | protein expression level of IL-8 (IL-8; Western blot, Day 7 after bleomycin and/or 5Z-7): significantly downregulated | colony forming ability of PSC27 cells (PSC27 cells; bleomycin and/or 5Z-7, Day 7): not associated with the inhibition of TAK1 activity | single-cell level of DDR foci (PSC27 cells; bleomycin-treated cells, presence or absence of inhibitor): did not change significantly
